The text below walks through data of patent US20110190399A1 (priority 2008, published 2011).

Data set [1] in a line: Effect on liver inflammation in human volunteers. The data set is classed as in vivo. The settings on record: 500 mg/day/person orally, 15 days. An excerpt:
Results of said tests are depicted in FIGS. 15.1-15.5.

The nature of data set [2]: Effect on hemoglobin and RBC level of human volunteers. The settings on record: 500 mg/day/person orally, 15 days. In kind it is in vivo.
The nature of data set [3]: Effect on kidney function in human volunteers. The data set is classed as in vivo. The settings on record: 500 mg/day/person orally.
The subject of a further data set is hemozoin synthesis. Briefly: In vivo inhibition of hemozoin synthesis in P. yoelii infected mice. Conditions: oral, 3 days, curcumin fed bound to chitosan nanoparticles. Here is the method:
Infected mice were divided into 4 groups (each having 4 mice), namely: • 1. Control group which was further sub-divided into the infected control group, olive oil control group and chitosan control group • 2. Infected and fed with Chloroquinine (1.7 mg in 100 μl of normal saline/mouse/day orally) • 3. […] Infected and fed with Chitosan nanoparticles (200 micrograms of chitosan/day) orally
Red blood cells were purified on the third day of treatment. […] The cells were centrifuged at 10,000 g for 10 min, supernatant was discarded and the pellet washed in 1 ml of 0.1 M alkaline bicarbonate buffer (pH 9.2).

Data set [4] in a line: Effect on fasting blood sugar levels in human volunteers. In kind it is in vivo. Conditions: 500 mg/day/person orally, 15 days. From the text:
The results of the analysis are depicted in FIG. 11.

Data set [5] is described as follows: Effect on globulin level, eosinophils, neutrophils and platelet count of human volunteers. The data set is classed as in vivo. Conditions: 500 mg/day/person orally, 15 days.

For the molecule `COc1cc(/C=C/C(=O)CC(=O)/C=C/c2ccc(O)c(OC)c2)ccc1O` [curcumin, Curcumin], in data set [1], the “ALP and Bilirubin levels” value is “in the normal range except in one or two cases”; the “adverse effect on liver function” value is “do not have any adverse effect on liver function”. Besides, the “blood hemoglobin and RBCs (anemic condition, RBC counts)” value in data set [2] is “no adverse effect”. In data set [3] (human volunteers (7), 15 days), the “change in potassium level” value is “increase”. Further, in data set [3] (human volunteers, 15 days), the “change in serum creatinine and urea levels” value is recorded as “slight decrease”. Besides, the “serum creatinine, urea and potassium levels” value in data set [3] (human volunteers, before and after 15 days) was “within the normal range”. Moreover, the “hemozoin formation in vivo” value in the data set on hemozoin synthesis is given as “inhibited hemozoin formation in vivo”. Moreover, the fasting glucose level result in data set [4] is “not altered”. In addition, in data set [5], the “levels of eosinophiles, neutrophils and platelets” value is on record as “no significant effect”.
On to `CCN(CC)CCCC(C)Nc1ccnc2cc(Cl)ccc12` (stereo not shown) [chloroquine], for which the “hemozoin formation in vivo” value in the data set on hemozoin synthesis was “inhibited hemozoin formation in vivo”.
